Reference: ChEMBL document CHEMBL1140893, “Cancer preventive agents. Part 8: Chemopreventive effects of stevioside and related compounds” (Bioorg Med Chem, 2009)

Legend:
Raji [1] = experiment: Inhibition of TPA-induced EBV-early antigen activation in human Raji cells at 1000 mol ratio after 48hrs by indirect immunofluorescence technique relative to control; type: cell-based; parameters: scale not given: the % may be the effect or the level left; conditions: human gammaherpesvirus 4
Raji [2] = experiment: Inhibition of TPA-induced EBV-early antigen activation in human Raji cells at 500 mol ratio after 48hrs by indirect immunofluorescence technique relative to control; type: cell-based; parameters: scale not given: the % may be the effect or the level left; conditions: human gammaherpesvirus 4
Raji [3] = experiment: Inhibition of TPA-induced EBV-early antigen activation in human Raji cells at 100 mol ratio after 48hrs by indirect immunofluorescence technique relative to control; type: cell-based; parameters: scale not given: the % may be the effect or the level left; conditions: human gammaherpesvirus 4
Raji [4] = experiment: Inhibition of TPA-induced EBV-early antigen activation in human Raji cells at 10 mol ratio after 48hrs by indirect immunofluorescence technique relative to control; type: cell-based; parameters: scale not given: the % may be the effect or the level left; conditions: human gammaherpesvirus 4
[5] = Inhibition of TPA-induced EBV-early antigen activation in human Raji cells after 48hrs by indirect immunofluorescence technique; type: cell-based, human gammaherpesvirus 4
[6] = Cytotoxicity against human Raji cells assessed as cell viability at 1000 mol ratio by trypan blue staining; type: cell-based; conditions: read-out: Activity
[7] = Cytotoxicity against human Raji cells assessed as cell viability at 500 mol ratio by trypan blue staining; type: cell-based; conditions: read-out: Activity
[8] = Cytotoxicity against human Raji cells assessed as cell viability at 100 mol ratio by trypan blue staining; type: cell-based; conditions: read-out: Activity
[9] = Cytotoxicity against human Raji cells assessed as cell viability at 10 mol ratio by trypan blue staining; type: cell-based; conditions: read-out: Activity
Mus musculus [10] = species: Mus musculus; experiment: Reduction in peroxynitrite-induced/TPA-promoted number of skin papillomas in Sencar mouse after 20 weeks; type: functional; parameters: scale not given: the % may be the effect or the level left
Mus musculus [11] = experiment: Inhibition of DMBA-induced/TPA-promoted carcinogenesis in mouse assessed as reduction in skin papillomas bearing mouse at 85 nmol administered 1 hr before TPA treatment measured after 15 weeks; type: functional; parameters: scale not given: the % may be the effect or the level left
Mus musculus [12] = experiment: Inhibition of DMBA-induced/TPA-promoted carcinogenesis in mouse assessed as reduction in skin papillomas bearing mouse at 85 nmol administered 1 hr before TPA treatment measured after 20 weeks; type: functional, organism-based; parameters: Activity: scale not given: the % may be the effect or the level left
Mus musculus [13] = experiment: Inhibition of DMBA-induced/TPA-promoted carcinogenesis in mouse assessed as number of skin papillomas per mouse at 85 nmol administered 1 hr before TPA treatment measured after 10 weeks; type: functional
Mus musculus [14] = experiment: Inhibition of DMBA-induced/TPA-promoted carcinogenesis in mouse assessed as number of skin papillomas per mouse at 85 nmol administered 1 hr before TPA treatment measured after 15 weeks; type: functional
Mus musculus [15] = experiment: Inhibition of DMBA-induced/TPA-promoted carcinogenesis in mouse assessed as number of skin papillomas per mouse at 85 nmol administered 1 hr before TPA treatment measured after 20 weeks; type: functional
Mus musculus [16] = experiment: Inhibition of DMBA-induced/TPA-promoted carcinogenesis in mouse assessed as reduction in skin papillomas bearing mouse at 85 nmol administered 1 hr before TPA treatment measured after 10 weeks; type: functional; parameters: scale not given: the % may be the effect or the level left
Mus musculus [17] = experiment: Inhibition of peroxynitrite-induced/TPA-promoted carcinogenesis in Sencar mouse assessed as reduction in skin papillomas bearing mouse at 85 nmol administered 1 hr before TPA treatment measured after 11 weeks; type: functional; parameters: scale not given: the % may be the effect or the level left
Mus musculus [18] = experiment: Inhibition of peroxynitrite-induced/TPA-promoted carcinogenesis in Sencar mouse assessed as reduction in skin papillomas bearing mouse at 85 nmol administered 1 hr before TPA treatment measured after 15 weeks; type: functional; parameters: scale not given: the % may be the effect or the level left
Mus musculus [19] = experiment: Inhibition of peroxynitrite-induced/TPA-promoted carcinogenesis in Sencar mouse assessed as reduction in skin papillomas bearing mouse at 85 nmol administered 1 hr before TPA treatment measured after 20 weeks; type: functional; parameters: scale not given: the % may be the effect or the level left
Mus musculus [20] = experiment: Inhibition of peroxynitrite-induced/TPA-promoted carcinogenesis in Sencar mouse assessed as number of skin papillomas per mouse at 85 nmol administered 1 hr before TPA treatment measured after 15 weeks; type: functional
Mus musculus [21] = experiment: Inhibition of peroxynitrite-induced/TPA-promoted carcinogenesis in Sencar mouse assessed as number of skin papillomas per mouse at 85 nmol administered 1 hr before TPA treatment measured after 20 weeks; type: functional
Mus musculus [22] = experiment: Inhibition of peroxynitrite-induced/TPA-promoted carcinogenesis in Sencar mouse assessed as number of skin papillomas per mouse at 85 nmol administered 1 hr before TPA treatment measured after 10 weeks; type: functional
Mus musculus [23] = experiment: Inhibition of peroxynitrite-induced/TPA-promoted carcinogenesis in Sencar mouse assessed as reduction in skin papillomas bearing mouse at 85 nmol administered 1 hr before TPA treatment measured after 10 weeks; type: functional; parameters: scale not given: the % may be the effect or the level left
Mus musculus [24] = experiment: Inhibition of DMBA-induced/TPA-promoted carcinogenesis in mouse assessed as reduction in skin papillomas bearing mouse at 85 nmol administered 1 hr before TPA treatment measured after 9 weeks; type: functional; parameters: scale not given: the % may be the effect or the level left
Mus musculus [25] = experiment: Inhibition of peroxynitrite-induced/TPA-promoted carcinogenesis in Sencar mouse assessed as number of skin papillomas per mouse at 85 nmol administered 1 hr before TPA treatment measured after 11 weeks; type: functional

| Structure (SMILES) | IC50 [5] [mol ratio/32 pmol TPA] | Activity (Raji [1]) [%] | Activity (Raji [2]) [%] | Activity (Raji [3]) [%] | Activity (Raji [4]) [%] | viability at 1000 mol ratio [6] [%] | viability at 500 mol ratio [7] [%] | viability at 100 mol ratio [8] [%] | viability at 10 mol ratio [9] [%] | Activity (Mus musculus [10]) [%] | Activity (Mus musculus [11]) [%] | Activity (Mus musculus [12]) [%] | Activity (Mus musculus [13]) | Activity (Mus musculus [14]) | Activity (Mus musculus [15]) | Activity (Mus musculus [16]) [%] | Activity (Mus musculus [18]) [%] | Activity (Mus musculus [19]) [%] | Activity (Mus musculus [20]) | Activity (Mus musculus [21]) | other results |
| --- | --- | --- | --- | --- | --- | --- | --- | --- | --- | --- | --- | --- | --- | --- | --- | --- | --- | --- | --- | --- | --- |
| COc1cc(/C=C/C(=O)CC(=O)/C=C/c2ccc(O)c(OC)c2)ccc1O [CURCUMIN] | 331 | 0 | 22.8 | 81.7 | 100 | 60 | > 80 | > 80 | > 80 | 45.1 |  |  |  |  |  |  |  |  |  |  |  |
| C=C1C[C@@]23CC[C@H]4[C@@](C)(CCC[C@@]4(C)C(=O)O[C@@H]4O[C@H](CO)[C@@H](O)[C@H](O)[C@H]4O)[C@@H]2CC[C@]1(O[C@@H]1O[C@H](C)[C@@H](O)[C@H](O)[C@@H]1O[C@@H]1O[C@H](CO)[C@@H](O)[C@H](O)[C@H]1O)C3 [DULCOSIDE A] |  | 6.7 | 40.9 | 73 | 92.5 |  |  |  |  |  |  |  |  |  |  |  |  |  |  |  |  |
| C=C1C[C@@]23CC[C@H]4[C@@](C)(CCC[C@@]4(C)C(=O)O[C@@H]4O[C@H](CO)[C@@H](O)[C@H](O)[C@H]4O)[C@@H]2CC[C@]1(O[C@@H]1O[C@H](CO)[C@@H](O)[C@H](O[C@@H]2O[C@H](CO)[C@@H](O)[C@H](O)[C@H]2O)[C@H]1O[C@@H]1O[C@H](CO)[C@@H](O)[C@H](O)[C@H]1O)C3 [REBAUDIOSIDE A] |  |  |  |  |  | 60 | > 80 | > 80 | > 80 |  |  |  |  |  |  |  |  |  |  |  |  |
| C=C1C[C@@]23CC[C@H]4[C@@](C)(CCC[C@@]4(C)C(=O)O[C@@H]4O[C@H](CO)[C@@H](O)[C@H](O)[C@H]4O)[C@@H]2CC[C@]1(O[C@@H]1O[C@H](CO)[C@@H](O)[C@H](O[C@@H]2O[C@H](CO)[C@@H](O)[C@H](O)[C@H]2O)[C@H]1O[C@@H]1O[C@@H](C)[C@H](O)[C@@H](O)[C@H]1O)C3 [REBAUDIOSIDE C] |  |  |  |  |  | 60 | > 80 | > 80 | > 80 |  |  |  |  |  |  |  |  |  |  |  |  |

Second part, led by results:

| IC50 [5] [mol ratio/32 pmol TPA] | Structure (SMILES) | Activity (Raji [1]) [%] | Activity (Raji [2]) [%] | Activity (Raji [3]) [%] | Activity (Raji [4]) [%] | viability at 1000 mol ratio [6] [%] | viability at 500 mol ratio [7] [%] | viability at 100 mol ratio [8] [%] | viability at 10 mol ratio [9] [%] | Activity (Mus musculus [10]) [%] | Activity (Mus musculus [11]) [%] | Activity (Mus musculus [12]) [%] | Activity (Mus musculus [13]) | Activity (Mus musculus [14]) | Activity (Mus musculus [15]) | Activity (Mus musculus [16]) [%] | Activity (Mus musculus [18]) [%] | Activity (Mus musculus [19]) [%] | Activity (Mus musculus [20]) | Activity (Mus musculus [21]) | other results |
| --- | --- | --- | --- | --- | --- | --- | --- | --- | --- | --- | --- | --- | --- | --- | --- | --- | --- | --- | --- | --- | --- |
| 381 | CC1(C)[C@@H](O[C@H]2O[C@H](C(=O)O)[C@@H](O)[C@H](O)[C@H]2O[C@@H]2O[C@H](C(=O)O)[C@@H](O)[C@H](O)[C@H]2O)CC[C@]2(C)[C@H]3C(=O)C=C4[C@@H]5C[C@@](C)(C(=O)O)CC[C@]5(C)CC[C@@]4(C)[C@]3(C)CC[C@@H]12 [GLYCYRRHIZIN] | 12.5 | 36.9 | 69.2 | 100 | 60 | > 80 | > 80 | > 80 |  | 60 | 94 | 2.8 | 4.6 | 6.2 | 50 |  |  |  |  |  |
| 321 | C[C@@]12CC[C@@H]3[C@@](CC[C@H]4[C@@]3(C)CCC[C@@]4(C)C(=O)O)(CC1=O)C2 [ISOSTEVIOL] | 1.9 | 34.2 | 73 | 90.6 |  | > 80 | > 80 | > 80 | 46.2 | 60 |  | 1.8 | 3.6 | 5 | 20 | 53 | 73 | 2.7 | 4.3 | Activity % (Mus musculus [12]): 87%; Activity (Mus musculus [17]): 33%; Activity (Mus musculus [22]): 1.6 |
| 450 | C=C1C[C@@]23CC[C@H]4[C@@](C)(CCC[C@@]4(C)C(=O)O[C@@H]4O[C@H](CO)[C@@H](O)[C@H](O)[C@H]4O)[C@@H]2CC[C@]1(O[C@@H]1O[C@H](CO)[C@@H](O)[C@H](O)[C@H]1O)C3 [RUBUSOSIDE] | 12.5 | 44.2 | 76.8 | 94.2 | 60 | > 80 | > 80 | > 80 |  |  |  |  |  |  |  |  |  |  |  |  |
| 340 | C=C1C[C@@]23CC[C@H]4[C@@](C)(CCC[C@@]4(C)C(=O)O)[C@@H]2CC[C@]1(O)C3 [STEVIOL] | 2.1 | 35.6 | 74.1 | 91.2 | 60 | > 80 | > 80 | > 80 | 44.4 | 60 | 87 | 1.8 | 3.7 | 5.4 | 27 | 67 | 93 | 3.5 | 4.5 | Activity (Mus musculus [22]): 2.3; Activity (Mus musculus [23]): 27% |
| 360 | C=C1C[C@@]23CC[C@H]4[C@@](C)(CCC[C@@]4(C)C(=O)O[C@@H]4O[C@H](CO)[C@@H](O)[C@H](O)[C@H]4O)[C@@H]2CC[C@]1(O[C@@H]1O[C@H](CO)[C@@H](O)[C@H](O)[C@H]1O[C@@H]1O[C@H](CO)[C@@H](O)[C@H](O)[C@H]1O)C3 [STEVIOSIDE] | 3.2 | 36.9 | 67.4 | 89.3 |  | > 80 | > 80 | > 80 | 45 | 53 | 93 |  |  |  |  | 53 | 87 | 3 | 4.4 | Activity (Mus musculus [24]): 20%; Activity (Mus musculus [17]): 40%; Activity (Mus musculus [25]): 2 |
